Laboratory results taken from patent US10111884B2, “Methods and compositions for treating viral infections” (THE HONG KONG UNIVERSITY OF SCIENCE AND TECHNOLOGY, priority 2012, dated 2018).
Like-named read-outs stand apart in the source and are kept apart here.

Experiments:
HCMV strain TB40/E = experiment: Antiviral drug susceptibility in ex-vivo HCMV-infected decidual organ cultures (normalized viral DNA); format: cell-based, human cytomegalovirus; settings: Human betaherpesvirus 5, TB40/E 10^5 PFU/well, 8 dpi, read-out: IC50 (drug concentration required to reduce normalized tissue viral DNA copy number by 50%)
Protocol: For infection of decidual organ cultures, the tissues were placed in 48-well plates (˜5 slices/well to maintain optimal viability) immediately after the sectioning and inoculated with the indicated virus (10^4 plaque forming units/well, unless indicated otherwise) for 12 hours to allow effective viral adsorption. Following viral adsorption, the cultures were washed extensively and further incubated for the duration of the experiment with replacement of the culture medium every 2-3 days.
DNA and RNA were extracted from the samples using the QIAamp DNA Mini Kit extraction kit and RNeasy Mini Kit (QIAGEN, Hilden, Germany) respectively, according to the manufacturer's instructions. The purified DNA samples were subjected to a quantitative real-time PCR reaction on a 7900HT Real Time PCR system (Applied Biosystems, Foster City, Calif., USA), using primers and probes derived from the HCMV glycoprotein B (gB) as described in Boeckh et al., 2004, J. Clin. Microbiol., 42, 1142-1148. […] The purified RNA samples were subjected to reverse transcription using GoScript™ (Promega, Madison, USA), followed by quantitative real-time PCR of the late HCMV R160461 spliced mRNA as described in White et al., 2004, J. Virol., 78, 1817-1830. […]

CMV [1] = experiment: CMV plaque reduction assay in HFF monolayers; format: cell-based, human cytomegalovirus
From the text: The CMV strains used were: AD169 (obtained from the American Type Culture Collection), and TB40/E. In addition, low-passage clinical isolates CI704, and CI893, recovered at the Hadassah Clinical Virology Laboratory from the urine of congenitally-infected newborns, and propagated for 3-5 passages, were used for some experiments. All CMV strains were propagated and titered in human foreskin fibroblasts (HFF) cells. Cell-free virus stocks and cell-associated clinical isolates were maintained at −70° C. Viral stocks were titered by serial 10-fold dilution in 24-well tissue culture plates containing HFF monolayers overlaid with agarose-medium. After incubation for 7 to 10 days, plaques were enumerated, and virus titer was determined as plaque forming units (PFU) per milliliter (ml). Stocks of artemisone, artemiside, RW177, compound IX, and artesunate were freshly prepared at 10 mM concentration in DMSO. Ganciclovir, stored as 10 mM stock was used in comparative assays.
Cell monolayers were inoculated in 24-well culture plates with 0.2 ml of virus suspension containing 60 to 100 PFU per well. After adsorption for 60 min at 37° C., the inoculum was removed, and culture medium was replaced with agarose-medium overlay containing the tested drug. The following final drug concentrations were used: Artemisone: 0, 0.1, 1, 5, 10, 25, and 50 μM; Artesunate: 0, 1, 5, 10, 25, 50, and 100 μM; Ganciclovir, artemiside, compound IX and RW177: 0, 0.1, 1, 5, 10, 25, and 50 μM. Plates were incubated for 10 days at 37° C. in a 5% CO2 incubator. Plaques were then counted microscopically. The drug concentration required to reduce the number of plaques to 50% of the control value (IC50), was calculated.
(§1) Antiviral activity of artemisone was determined by applying various drug concentrations to a growing virus in cell culture, using a standard plaque reduction assay. Artesunate, a compound known to have significant anti-viral activity, was tested in parallel. Ganciclovir was used as an additional positive control. The IC50 values of at least three separate experiments with each drug and virus were averaged, and the results are reported as mean±standard deviation values. Representative curves of plaque reduction assay for artemisone and artesunate are depicted in FIGS. 2A and 3A, respectively.

[2] = male rats, 50 mg/kg for 14 days; cited from earlier work
[3] = preclinical in vitro and in vivo screens; cited from earlier work
CMV [4] = experiment: Quantification of viral DNA in infected cells by real-time PCR (CMV gB gene); format: cell-based, human cytomegalovirus; settings: FIGS. 2B, 3B
Protocol: Viral DNA quantity in infected cells with and without added drugs (expressed as genome copies/well) was determined by real-time PCR assay, following DNA extraction from cells, with the use of primers and probe derived from the CMV gB gene.
The results of Example 1 were confirmed by quantitation of viral DNA using real-time PCR. […] Representative curves of viral DNA accumulation for artemisone and artesunate are depicted in FIGS. 2B and 3B, respectively.

[5] = system: HCMV strain AD169 IE1/2 antigen; experiment: Immunofluorescence assay of viral immediate early (IE1/2) gene expression; format: cell-based, human cytomegalovirus; settings: 24 hpi; for viral IE gene expression (in words): 25 μM
Protocol: (§2) Human foreskin fibroblasts (HFF) were infected with HCMV strain AD169. At 1 hour post infection (hpi), artemisone (25 μM) or ganciclovir (25 μM) were added to the growth medium, and the cells were further incubated in the presence of the drug, until prepared for immunofluorescence analysis at 24 and 72 hpi—to analyze the expression of IE and pp65, respectively. Control untreated infected cells, and mock-infected cells were analyzed in parallel.
(§3) Cells grown on 8-well glass slides were infected at a multiplicity of infection (moi) of 0.1 PFU/cell. Supernatant was removed at 24 and 72 hpi, and cells were washed 3 times with PBS and fixed with 3.7% formaldehyde for 30 minutes at room temperature. Cells were washed 5 times with PBS+1% NH4Cl, permeabilized by 0.1% TX100 for 5 minutes and washed 5 times with PBS+1% NH4Cl. After 1 hour of blocking using 1% BSA in PBS, the indicated primary monoclonal antibodies (IE1/2 or pp65) were added to the cells in appropriate dilution in 0.5% BSA in PBS and incubated either at room temperature for 2 hours or overnight at 4° C. The secondary antibody was added to the cells in appropriate dilution in PBS containing 0.5% BSA for 30 minutes at room temperature and washed by PBS.
(§4) Following mounting with commercial mounting media, with addition of 4′,6-diamidino-2-phenylindole (DAPI) nuclear stain (yielding nuclear blue stain in all cells), the cells were analyzed by fluorescence microscopy. Results were monitored on at least 3 independent experiments, scoring at least 5 fields (of between 500 and 800 cells each) for each treatment arm.

CMV [6] = experiment: CMV antiviral activity in retinal epithelial cells (RPE) culture; format: cell-based, human cytomegalovirus
Protocol: as §1

[7] = system: human foreskin fibroblasts (HFF) cells; experiment: Cytotoxicity observed alongside plaque reduction assay; format: cell-based
[8] = system: HCMV strain AD169 pp65 antigen; experiment: Immunofluorescence assay of viral late (pp65) gene expression; format: cell-based, human cytomegalovirus; settings: 72 hpi; for viral late (pp65) gene expression (in words): 25 μM
Protocol: as §2, §3, §4

human endothelial cells = settings: D'Alessandro et al., 2007; cited from earlier work
[9] = Human betaherpesvirus 5, 240 h, read-out: IC50 (drug concentration required to reduce the number of plaques to 50% of control), mean ± standard deviation
[10] = IE1 ± IE2 antigen, drug 25 μM, HFF, AD169
[11] = pp65 antigen, drug 25 μM, HFF, AD169

Row | Compound | IC50 (HCMV strain TB40/E) | IC50 (CMV [1]; [9]) | viral IE gene expression (in words) [5] | CMV antigen-positive cells (%) [5, 10] | viral late (pp65) gene expression (in words) [8] | CMV antigen-positive cells (%) [8, 11] | further results
1 | Nc1nc2c(ncn2COCCO)c(=O)[nH]1 [acyclovir] | 18.3 µM |  |  |  |  |  | 
2 | CC1CCC2[C@@H](C)[C@H](NS(N)(=O)=O)OC3O[C@]4(C)CCC1C32OO4 (stereo partly drawn) [compound IX] |  |  |  |  |  |  | IC50 (CMV [1]; Human betaherpesvirus 5, 240 h, at least three separate experiments averaged, 10 days incubation, read-out: IC50 (drug concentration required to reduce the number of plaques to 50% of control), mean ± standard deviation): 2.1 ± 0.6 µM
3 | CC1CCC2[C@@H](C)[C@H](N3CCS(=O)(=O)CC3)OC3O[C@]4(C)CCC1C32OO4 (stereo in doubt) [Artemisone] |  | 0.9 ± 0.3 µM | significant reduction | 0% | highly efficient reduction | 0% | tolerability [2]: no effect as compared to controls; neurotoxicity [3]: does not elicit neurotoxicity; IC50 (CMV [1]; Human betaherpesvirus 5, representative curve, FIG. 2A / FIG. 3A, read-out: IC50 value for this assay (inhibition of CMV plaque formation, dose response curve)): 1.2 µM; antiviral efficacy by quantitation of viral DNA (CMV [4]): far superior to that of artesunate; antiviral activity compared to artesunate (CMV [6]): Superior antiviral activity; cytotoxicity [7]: no cytotoxicity; anti-angiogenic effect compared to dihydroartemisinin (human endothelial cells): significantly less anti-angiogenic than dihydroartemisinin
4 | Nc1nc(O)c2ncn(COC(CO)CO)c2n1 [Ganciclovir, ganciclovir] | 1.5 µM |  | did not inhibit IE gene expression | 5.97% | highly efficient reduction | 0.18% | CMV antigen-positive cells per field (N) [5, 10]: 33 ± 5; CMV antigen-positive cells per field (N) [8, 11]: 1 ± 0.25
5 | C[C@H]1[C@H](N2CCSCC2)O[C@@H]2O[C@@]3(C)CC[C@H]4[C@H](C)CC[C@@H]1[C@@]24OO3 [artemiside, reference compound] |  | > 40 µM |  |  |  |  | 
6 | C[C@H]1[C@H](OC(=O)CCC(=O)O)O[C@@H]2O[C@@]3(C)CC[C@H]4[C@H](C)CC[C@@H]1[C@@]24OO3 [Artesunate, artesunate, reference compound] |  | 10.8 ± 4.2 µM |  |  |  |  | IC50 (CMV [1]; Human betaherpesvirus 5, read-out: IC50 value for this assay (inhibition of CMV plaque formation, dose response curve)): 15 µM
